Measured values from patent US6235739A, “5-phenyl-3-pyridazinone derivatives and drug composition containing the same” (Nikken Chemicals Co., Ltd., priority 1996, dated 2001).
pIC50: −log10 of the molar value.

Experiments:
Type IV PDE = assay: Measurement of type IV PDE inhibiting activity; type: biochemical; details: type IV PDE partially purified from neutrophils; 3H-cAMP substrate; 30 minutes; read-out: Type IV PDE Inhibitory activity IC50
Description: Type I, III, IV, and V PDE isozymes were prepared to study the PDE inhibiting activities and selectivities of the compound of the invention [Trends Pharmacol Sci., 12, 19-27 (1992)]. Type I PDE was purchased from Sigma Corp. Type III and V PDE isozymes were partially purified from rats platelets, and type IV PDE isozyme was partially purified from neutrophils. Each enzyme source was homogenized in a buffer (pH 6.5) containing 20 mM bisTris, 2 mM EDTA, 0.1 mM PMSF (phenylmethylsulfonyl fluoride), 5 mM 2-mercaptoethanol, 0.01 mM pepstatin, and 0.01 mM leupeptin and was centrifuged at 30,000G for 30 minutes to obtain a supernatant, which was applied to a column (1.5×20 cm) packed with an ion-exchange resin (Q-sepharose First Flow, Pharmacia Corp.) and was eluted with sodium acetate gradient of 0 to 1M. Partially purified isozymes were identified by observing the effects of conventional inhibitor.
Each PDE isozyme and test compounds dissolved in DMSO (i.e., dimethyl sulfoxide) were added to 50 mM Tris-HCl buffer containing 5 mM magnesium chloride. ^3 H-cAMP (for type III and IV PDE) or ^3 H-cGMP (for type I and V PDE) were added as substrates and were reacted for 30 minutes. The reaction was terminated by placing the test tube in boiling water of 100° C. for 5 minutes. The nucleotides formed by PDE were broken down by 5'-nucleotidase to ^3 H-adenosine or 3H-guanosine. The unreacted substrate and reaction product were separated through a column packed with an ion-exchange resin (QAE sephadex). The eluted ^3 H-nucleoside was measured for its radioactivity by a liquid scintillation counter. The inhibiting activities of the compound of the present invention against types I, III and V are 1/10 or less than that against type IV.

[1] = system: antigen-induced bronchospasm; assay: Inhibitory effect on antigen-induced bronchospasm (anti-asthmatic action); type: in vivo; details: Cavia porcellus, iv; ovalbumin-sensitized Hartley male guinea pig; intravenously 10 minutes before 0.2 mg/kg OA i.v.; Konzett-Roessler method; read-out: Action for suppressing antigen-induced bronchospasms ED50
Description: A Hartley male guinea pig was sensitized by intramuscular administration of […] Ovalbumin (OA) on first day and fourth day, and used after 24th day. A trachial canula was introduced in the guinea pig anesthetized with pentobarbital and artificial ventilation was performed 25 to 29 days after the first sensitization. The overflow of the ventilation was measured by the Konzett-Roessler method, while 0.2 mg/kg OA were administered intravenously. The test compound was dissolved in polyethylene glycol 400 and intravenously administered 10 minutes before administration of the antigens.

rat neutrophils = assay: Inhibitory effects on activity of rat neutrophils (release of super oxide anions); type: cell-based; details: Neutrophil, stimulation with 0.3 μM calcium ionophore A23187, chemiluminescence, read-out: Action for suppressing release of super oxide anions from rat neutrophils IC50
Description: The release of super oxide anions was measured so as to study the inhibitory effects of the compound on inflammatory leukocytes, that is, neutrophils.
Blood sample was obtained from Wister rats anesthetized with ether. It was superposed on a blood cell separation solution (Polymorphoprep 1.113, made by Naicomet Co. (phonetic)) and the neutrophils were separated by centrifugation. The neutrophils were resuspended in a Hank's balanced salt solution at a concentration of 0.5×10^4 cell/ml. 0.1 mM of Lusigenin and the test substance dissolved in DMSO were added to 2 ml of the cell-suspension. The chemiluminescence generated by stimulation of 0.3 μM calcium ionophore A23187 was measured by a chemiluminescence reader so as to evaluate the release of super oxide anions.

Row | pIC50 (Type IV PDE) | pIC50 (rat neutrophils) | Structure (SMILES) | ED50 [1] [mg/kg]
1 | 5.92 |  | COc1ccc(C2C=NNC(=O)C2)cc1OCC1(C)CC1 (stereo not shown) [Compound No. 11, 5-[4-methoxy-3-[(1-methylcyclopropyl)methyloxy]phenyl]2,3,4,5-tetrahydropyridazin-3-one] | 0.82
2 | 5.32 |  | COc1ccc(C2C=NNC(=O)C2)cc1OCC(C)(C)C (stereo not shown) [Compound No. 15, 5-[3-(2,2-dimethylpropoxy)-4-methoxyphenyl]-2,3,4,5-tetrahydropyridazin-3-one] | 
3 | 5.34 |  | COc1ccc(C2C=NN(C)C(=O)C2)cc1OCC1CC1 (stereo not shown) [Compound No. 18, 5-(3-cyclopropylmethyloxy-4-methoxyphenyl) -2-methyl-2,3,4,5-tetrahydropyridazin-3-one] | 0.12
4 | 6.48 |  | COc1ccc(C2C=NNC(=O)C2)cc1OCCCCCc1ccccc1 (stereo not shown) [Compound No. 16, 5-[4-methoxy-3-(5-phenylpentyloxy)phenyl]-2,3,4,5-tetrahydropyridazin-3-one] | 
5 | 5.85 |  | COc1ccc(C2C=NN(C)C(=O)C2)cc1OCC1(c2ccccc2)CC1 (stereo not shown) [Compound No. 26, 5-[4-methoxy-3-[(1-phenylcyclopropyl)methyloxy]phenyl]-2-methyl-2,3,4,5-tetrahydropyridazin-3-one] | 
6 | 6.17 | 6.37 | COc1ccc(C2C=NN(C)C(=O)C2)cc1OC1CCCC1 (stereo not shown) [Compound No. 5, 5-(3-cyclopentyloxy-4-methoxyphenyl)-2-methyl-2,3,4,5-tetrahydropyridazin-3-one] | 
7 | 5.64 |  | COc1ccc(C2C=NN(C)C(=O)C2)cc1OCC(C)C (stereo not shown) [Compound No. 20, 5-[4-methoxy-3-(2-methylpropoxy)phenyl]-2-methyl-2,3,4,5-tetrahydropyridazin-3-one] | 0.97
8 | 6.77 |  | COc1ccc(C2C=NNC(=O)C2)cc1OC1Cc2ccccc2C1 (stereo not shown) [Compound No. 9, 5-[3-(2-indanyloxy)-4-methoxyphenyl]-2,3,4,5-tetrahydropyridazin-3-one] | 
9 | 5.80 |  | COc1ccc(C2C=NNC(=O)C2)cc1OCC1CC1 (stereo not shown) [Compound No. 10, 5-(3-cyclopropylmethyloxy-4-methoxyphenyl)-2,3,4,5-tetrahydropyridazin-3-one] | 0.074
10 | 5.38 | 5.77 | COc1ccc(C2C=NN(c3ccccc3)C(=O)C2)cc1OC (stereo not shown) [Compound No. 2, 5-(3,4-dimethoxyphenyl)-2-phenyl-2,3,4,5-tetrahydropyridazin-3-one] | 
11 | 6.38 | 7.52 | COc1ccc(C2C=NNC(=O)C2)cc1OC1CCCC1 (stereo not shown) [Compound No. 3, 5-(3-cyclopentyloxy-4-methoxyphenyl)-2,3,4,5-tetrahydropyridazin-3-one] | 0.4
12 | 5.96 |  | COc1ccc(C2C=NNC(=O)C2)cc1OCC(C)C (stereo not shown) [Compound No. 12, 5-[4-methoxy-3-(2-methylpropoxy)phenyl]-2,3,4,5-tetrahydropyridazin-3-one] | 1.05
13 | 5.60 |  | COc1ccc(C2CNNC(=O)C2)cc1OC1CCCC1 (stereo not shown) [Compound No. 4, 5-(3-cyclopentyloxy-4-methoxyphenyl)hexahydropyridazin-3-one] | 2.1
14 | 5.57 |  | COc1ccc(C2C=NN(C)C(=O)C2)cc1OCCc1ccccc1 (stereo not shown) [Compound No. 19, 5-(4-methoxy-3-phenethyloxyphenyl) -2-methyl-2,3,4,5-tetrahydropyridazin-3-one] | 
15 | 4.72 |  | COc1ccc(C2CC(=O)NN=C2c2ccccc2)cc1OC1CCCC1 (stereo not shown) [Compound No. 28, 5-(3-cyclopentyloxy-4-methoxyphenyl)-6-phenyl-2,3,4,5-tetrahydropyridazin-3-one] | 
16 | 5.57 |  | COc1ccc(C2C=NN(C)C(=O)C2)cc1OCC1(C)CC1 (stereo not shown) [Compound No. 22, 5-[4-methoxy-3-[(1-methylcyclopropyl)methyloxy]phenyl]-2-methyl-2,3,4,5-tetrahydropyridazin-3-one] | 2.37
17 | 6.12 |  | COc1ccc(C2C=NNC(=O)C2)cc1OCC1(c2ccccc2)CC1 (stereo not shown) [Compound No. 25, 5-[4-methoxy-3-[(1-phenylcyclopropyl)methyloxy]phenyl]-2,3,4,5-tetrahydropyridazin-3-one] | 
18 | 5.80 |  | COc1ccc(C2C=NNC(=O)C2)cc1OCCc1ccccc1 (stereo not shown) [Compound No. 8, 5-(4-methoxy-3-phenethyloxyphenyl)-2,3,4,5-tetrahydropyridazin-3-one] | 4.2
19 | 5.06 |  | COc1ccc(C2C=NNC(=O)C2)cc1OCc1ccccc1 (stereo not shown) [Compound No. 7, 5-(3-benzyloxy-4-methoxyphenyl)-2,3,4,5-tetrahydropyridazin-3-one] | 
20 | 5.41 |  | COc1ccc(C2C=NN(C)C(=O)C2)cc1OCC(C)(C)C (stereo not shown) [Compound No. 21, 5-[3-(2,2-dimethylpropoxy)-4-methoxyphenyl]-2-methyl-2,3,4,5-tetrahydropyridazin-3-one] | 
21 | 6.20 |  | COc1ccc(C2C=NN(C)C(=O)C2)cc1OC1Cc2ccccc2C1 (stereo not shown) [Compound No. 17, 5-[3-(2-indanyloxy)-4-methoxyphenyl]-2-methyl-2,3,4,5-tetrahydropyridazin-3-one] | 
22 | 6.74 | 6.89 | COc1ccc(C2C=NN(Cc3ccccc3)C(=O)C2)cc1OC1CCCC1 (stereo not shown) [Compound No. 6, 2-benzyl-5-(3-cyclopentyloxy-4-methoxyphenyl)-2,3,4,5-tetrahydropyridazin-3-one] | 3.2
23 | 4.74 | 4.82 | COc1ccc(C2CC(=O)NN=C2C)cc1OC (stereo not shown) [compound 27, 5-(3,4-dimethoxyphenyl)-6-methyl-2,3,4 5-tetrahydropyridazin-3-one] | 
24 | 5.03 | 4.85 | COc1ccc(C2C=NNC(=O)C2)cc1OC (stereo not shown) [Compound No. 1, 5-(3,4-dimethoxyphenyl)-2,3,4,5-tetrahydropyridazin-3-one] | 

Row | Structure (SMILES) | pIC50 (Type IV PDE) | pIC50 (rat neutrophils) | ED50 [1] [mg/kg]
25 | CCCCOc1cc(C2C=NN(C)C(=O)C2)ccc1OC (stereo not shown) [Compound No. 23, 5-(3-butoxy-4-methoxyphenyl)-2-methyl-2,3,4,5-tetrahydropyridazin-3-one] | 5.20 |  | 0.53
26 | CCC(CC)COc1cc(C2C=NN(C)C(=O)C2)ccc1OC (stereo not shown) [Compound No. 24, 5-[4-methoxy-3-(2-ethylbutoxy)phenyl]-2-methyl-2,3,4,5-tetrahydropyridazin-3-one] | 6.47 |  | 
27 | CCCCOc1cc(C2C=NNC(=O)C2)ccc1OC (stereo not shown) [Compound No. 13, 5-(3-butoxy-4-methoxyphenyl)-2,3,4,5-tetrahydropyridazin-3-one] | 5.47 |  | 1.4
28 | CCC(CC)COc1cc(C2C=NNC(=O)C2)ccc1OC (stereo not shown) [Compound No. 14, 5-[3-(2-ethylbutoxy)-4-methoxyphenyl]-2,3,4,5-tetrahydropyridazin-3-one] | 5.64 |  | 
